Like-named read-outs stand apart in the source and are kept apart here.
What was measured:
[1] = biological target: T1, P. falciparum cytoplasmic isoleucyl-tRNA synthetase (PfcIRS) (Plasmodium falciparum, UniProt Q8IDZ9); experiment: AMP-Glo enzymatic assay with recombinant PfcIRS; type: biochemical
T1 construct: gene PF3D7_1332900; full-length PfcIRS (1-1273), C-terminal TEV-cleavable His10-FLAG tag removed, Sf9 expressed

[2] = tested on: T2, P. falciparum 3D7; experiment: microbe, parasite or virus in culture; set-up: species or system P. falciparum in human erythrocytes; asexual blood-stage growth inhibition, synchronized ring-stage parasites, SYBR Green I fluorescence; details: Plasmodium falciparum, 3D7, Erythrocyte, 72 h; initial laboratory strain experiment (Table S1); read-out: P. falciparum asexual blood stage activity (IC50 uM) / 3D7
T2 construct: 3D7
Method: (§1) Compound dose-response assays were performed in flat-bottom 96-well plates. Tightly synchronized ring-stage parasites were adjusted to 1% parasitemia at 1% hematocrit and exposed to a twofold serial dilution of the compounds plated using a Tecan D300e digital dispenser. As controls, the assay plate included untreated parasites and parasites treated with 700 nM DHA only. After 72 h of incubation, parasite growth was measured by lysing the cells with a 2 × lysis buffer containing 10 mM Tris-HCl, 5 mM EDTA, 0.1% (wt/vol) saponin, and 1% (vol/vol) Triton X-100, supplemented with 2 × SYBR Green I (Molecular Probes). Fluorescence was recorded using a FluorStar Omega v5.11 plate reader. IC50 values were determined using GraphPad Prism v9, and statistical significance was assessed with a two-sided Mann-Whitney U test. Each assay was conducted in technical duplicate, with a minimum of three biological replicates, as described in the figure legends. P. falciparum parasites were cultured with fresh human erythrocytes at 3% hematocrit in RPMI 1640 medium (Gibco), supplemented with 0.5% Albumax II (Gibco), 25 mM HEPES (Sigma), 1× GlutaMAX (Gibco), and 25 μg/mL gentamicin (Gibco). The following parasite strains were used: 3D7, Dd2 (MR4, MRA-156, T. Wellems), GB4 (MR4, MRA-925, T. Wellems), UG659 (P. Rosenthal), Cam/PH0212C (R. Fairhurst), and Cam3.II/ PH0306-C (R. Fairhurst). The cultures were maintained under a controlled tri-gas atmosphere of 1% O2, 3% CO2, and 96% N2. Human erythrocytes were ethically sourced from healthy, anonymous donors through the Scottish National Blood Transfusion Service (SNBTS) or the National Health Services Blood and Transplant (NHSBT). The use of red blood cells was with approval from the University of Dundee Schools of Medicine and Life Sciences Research Ethics Committee, and the NHS Cambridgeshire Research Ethics Committee and Wellcome Sanger Institute Human Materials and Data Management Committee. Half-maximal growth inhibition concentrations were determined for the nine query compounds against chloroquine-sensitive (3D7) and multidrug-resistant (Dd2) parasites (Fig. 1B; Table S1). Compounds were further assessed against a panel of geographically diverse parasite strains, including two multidrug-resistant Cambodian isolates (resistant to artemisinin, chloroquine, and pyrimethamine) and strains from Uganda (UG659) and Ghana (GB4). […] However, a reduction in sensitivity to TCMDC-134122 was noted across all strains when compared to Dd2.

[3] = tested on: T3, P. falciparum Dd2; experiment: microbe, parasite or virus in culture; set-up: species or system P. falciparum in human erythrocytes; asexual blood-stage growth inhibition, synchronized ring-stage parasites, SYBR Green I fluorescence; details: Plasmodium falciparum, DD2, Erythrocyte, 72 h
T3 construct: Dd2
Method: as §1

[4] = tested on: T4, Plasmodium falciparum CAM (PH0212C); experiment: microbe, parasite or virus in culture; set-up: species or system P. falciparum in human erythrocytes; asexual blood-stage growth inhibition, synchronized ring-stage parasites, SYBR Green I fluorescence; details: Erythrocyte, 72 h, read-out: P. falciparum asexual blood stage activity (IC50 uM) / CAM (PH0212C) / IC50
T4 construct: Cam/PH0212C
Method: as §1

[5] = tested on: T5, Plasmodium falciparum Cam3.II; experiment: microbe, parasite or virus in culture; set-up: species or system P. falciparum in human erythrocytes; asexual blood-stage growth inhibition, synchronized ring-stage parasites, SYBR Green I fluorescence; details: Erythrocyte, 72 h, read-out: P. falciparum asexual blood stage activity (IC50 uM) / Cam3.II / IC50
T5 construct: Cam3.II
Method: as §1

[6] = tested on: T6, Plasmodium falciparum GB4; experiment: microbe, parasite or virus in culture; set-up: species or system P. falciparum in human erythrocytes; asexual blood-stage growth inhibition, synchronized ring-stage parasites, SYBR Green I fluorescence; details: Erythrocyte, 72 h, read-out: P. falciparum asexual blood stage activity (IC50 uM) / GB4 / IC50
T6 construct: GB4
Method: as §1

[7] = tested on: T7, Plasmodium falciparum UG654 (UG659 in methods); experiment: microbe, parasite or virus in culture; set-up: species or system P. falciparum in human erythrocytes; asexual blood-stage growth inhibition, synchronized ring-stage parasites, SYBR Green I fluorescence; details: Erythrocyte, 72 h, read-out: P. falciparum asexual blood stage activity (IC50 uM) / UG654 / IC50
T7 construct: UG659
Method: as §1

[8] = initial laboratory strain experiment (Table S1), read-out: P. falciparum asexual blood stage activity (IC50 uM) / Dd2
[9] = strain panel experiment (Table S2), read-out: P. falciparum asexual blood stage activity (IC50 uM) / Dd2 / IC50

T1 sequence (Q8IDZ9 entry or part of it): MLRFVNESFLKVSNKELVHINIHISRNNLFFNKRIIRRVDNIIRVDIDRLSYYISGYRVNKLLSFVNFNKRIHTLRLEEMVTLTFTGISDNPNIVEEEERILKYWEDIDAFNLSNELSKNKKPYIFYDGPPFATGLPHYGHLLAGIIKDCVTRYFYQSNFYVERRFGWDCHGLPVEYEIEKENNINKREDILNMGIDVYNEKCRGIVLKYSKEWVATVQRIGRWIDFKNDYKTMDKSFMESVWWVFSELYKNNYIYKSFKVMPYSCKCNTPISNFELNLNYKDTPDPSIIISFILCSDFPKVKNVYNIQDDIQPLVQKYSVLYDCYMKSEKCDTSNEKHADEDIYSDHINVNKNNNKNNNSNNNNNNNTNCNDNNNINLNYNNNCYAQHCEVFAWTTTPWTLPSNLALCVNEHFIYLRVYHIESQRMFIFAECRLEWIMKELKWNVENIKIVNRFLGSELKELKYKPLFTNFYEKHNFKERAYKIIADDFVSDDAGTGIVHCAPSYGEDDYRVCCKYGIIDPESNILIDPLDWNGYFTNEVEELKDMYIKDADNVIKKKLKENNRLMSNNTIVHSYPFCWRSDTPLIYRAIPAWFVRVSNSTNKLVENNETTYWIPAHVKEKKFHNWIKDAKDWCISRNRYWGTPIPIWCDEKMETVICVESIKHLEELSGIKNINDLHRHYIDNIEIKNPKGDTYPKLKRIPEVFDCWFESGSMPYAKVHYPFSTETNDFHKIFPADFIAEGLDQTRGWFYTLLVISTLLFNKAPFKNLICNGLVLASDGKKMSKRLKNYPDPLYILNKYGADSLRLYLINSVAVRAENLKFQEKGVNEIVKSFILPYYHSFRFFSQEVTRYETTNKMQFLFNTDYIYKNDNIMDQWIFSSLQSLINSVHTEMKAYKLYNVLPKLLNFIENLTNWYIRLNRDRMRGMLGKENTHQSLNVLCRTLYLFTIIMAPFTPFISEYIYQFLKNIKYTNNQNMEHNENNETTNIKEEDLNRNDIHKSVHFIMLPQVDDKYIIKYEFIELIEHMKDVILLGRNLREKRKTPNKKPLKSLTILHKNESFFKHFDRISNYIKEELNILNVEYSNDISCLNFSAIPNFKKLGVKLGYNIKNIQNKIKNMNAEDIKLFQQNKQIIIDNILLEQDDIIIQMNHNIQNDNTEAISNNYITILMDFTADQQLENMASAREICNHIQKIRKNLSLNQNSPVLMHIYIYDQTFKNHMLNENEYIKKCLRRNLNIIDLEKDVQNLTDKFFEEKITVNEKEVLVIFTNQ

Compound | IC50 [1] [nM] | IC50 [2] [µM] | IC50 [3, 8] [µM] | IC50 [3, 9] [µM] | IC50 [4] [µM] | IC50 [5] [µM] | IC50 [6] [µM] | IC50 [7] [µM]
c1ccn2c(Sc3ncnc4sccc34)ncc2c1 [TCMDC-124602] | 6590 | 0.502 | 0.45 | 0.288 | 0.313 | 0.316 | 0.651 | 0.354
CCOc1ccc2nc(NC(=O)c3csnn3)sc2c1 [TCMDC-125075] |  | 0.144 | 0.206 | 0.192 | 0.195 | 0.115 | 0.16 | 0.178
Cc1cccc2[nH]c(-c3cccc(-c4cccc(NC(=O)CCc5c[nH]cn5)c4)c3)nc12 [TCMDC-132158] |  | 0.616 | 0.609 | 0.932 | 0.654 | 0.757 | 1.72 | 1.82
Cc1cccc(C)c1CNc1cccc(-c2nc(C)c(C)[nH]2)c1 [TCMDC-133434] |  | 0.89 | 0.851 | 1.74 | 1.33 | 1.21 | 0.924 | 1.22
COc1ccc(-n2ncc(C(=O)N3CCC4(C3)C(=O)N(c3ccccc3)c3ccccc34)c2C)cc1 (stereo not shown) [TCMDC-134122] |  | 0.572 | 0.216 | 0.394 | 1.25 | 1.78 | 1.67 | 1.17
Cc1cccc2[nH]c(-c3ccc(-c4cccc(NC(=O)C(C)CN5CCN(C)CC5)c4)cc3)nc12 (stereo not shown) [TCMDC-137144] |  | 0.912 | 1.4 | 1.39 | 1.2 | 1.39 | 1.94 | 2.18
COc1cc(-c2[nH]c(C(C)(C)CN)nc2-c2ccncc2)ccc1Br [TCMDC-140674] |  | 0.688 | 0.244 | 0.341 | 0.501 | 0.532 | 1.85 | 1.07
CC(C)(CN)c1cc(-c2ccc(Cl)c(O)c2)c(-c2ccncc2)o1 [TCMDC-141334] |  | 0.446 | 0.414 | 0.485 | 0.676 | 0.644 | 0.974 | 0.537
CC(C)(C)c1cc(Cl)cc(C(=O)Nc2cc([N+](=O)[O-])ccc2Cl)c1O [TCMDC-142214] |  | 3.65 | 3.17 | 2.88 | 3.8 | 2.78 | 3.08 | 3.07
